From US10933056B2, “3-(1H-pyrazol-4-yl)pyridine allosteric modulators of the M4 muscarinic acetylcholine receptor” (Merck Sharp & Dohme Corp., priority 2015, dated 2021)

Target: T1, human M4 muscarinic acetylcholine receptor (Homo sapiens, UniProt P08173)
T1 construct: expressed in transfected cells; host or cells: CHO-K1
T1 sequence (P08173 1-479): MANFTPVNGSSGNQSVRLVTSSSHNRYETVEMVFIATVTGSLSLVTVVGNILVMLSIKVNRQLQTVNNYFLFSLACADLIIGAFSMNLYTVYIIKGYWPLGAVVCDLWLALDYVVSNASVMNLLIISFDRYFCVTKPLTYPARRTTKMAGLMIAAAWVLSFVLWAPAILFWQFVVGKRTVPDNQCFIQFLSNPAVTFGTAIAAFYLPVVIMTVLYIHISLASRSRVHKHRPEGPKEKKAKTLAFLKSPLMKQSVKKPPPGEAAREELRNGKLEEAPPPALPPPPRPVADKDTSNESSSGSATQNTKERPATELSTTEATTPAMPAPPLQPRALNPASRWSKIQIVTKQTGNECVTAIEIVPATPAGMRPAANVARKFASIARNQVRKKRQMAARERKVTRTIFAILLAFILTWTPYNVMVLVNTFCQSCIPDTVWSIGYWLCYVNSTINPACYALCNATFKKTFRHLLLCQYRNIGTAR
Experiment: human FLIPR-based M4 PAM assay (calcium mobilization in CHO-K1 cells with human M4 receptor and Gαqi5)
Assay type: cell-based
Settings: inflection point of dose response curve, acetylcholine at 20% of maximum response, FLIPR Tetra, read-out: M4 PAM IP
Experimental: (§1) In a typical experiment the M4 muscarinic acetylcholine receptor modulating activity of the compounds of the present invention was determined in accordance with the following experimental method. CHO-K1 cells stably transfected with human M4 receptor and chimeric G-protein Gαqi5 (Coward P, et al., Analytical Biochemistry, 270:242-248 (1999)) are thawed from liquid N2 storage, resuspended in growth medium, plated in black, clear bottom 384 well plates, and incubated 16-20 hours at 37° C., 5% CO2. On the day of assay, growth medium is removed, the cells are washed 2 times with wash buffer, and cells are incubated in dye loading buffer at 37° C., 5% CO2 for ˜1 hour. Following dye loading the cell plates are placed in a FLIPR Tetra instrument and while monitoring dye fluorescence (excitation […]), 10 uL of test substance at increasing concentrations is added, and fluorescence values are recorded for 4 min. Next, 10 uL of acetylcholine is added (final concentration calculated so as to achieve 20% of the maximum acetycholine response), and the fluorescence reading is continued for 3.5 min. In some cases, a third addition of acetylcholine (final concentration calculated to achieve 70% of the maximal acetylcholine response) is performed. The resulting dose response curves are fit to a 4 parameter logistic equation and the final result is determined as the inflection point (IP) of the curve
as §1, with “CHO-K1” for “In a typical experiment the M4 muscarinic acetylcholine receptor modulating activity of the compounds of the present invention was determined in accordance with the following experimental method. CHO-K1”, “Gαqi5” for “Gαqi5 (Coward P, et al., Analytical Biochemistry, 270:242-248 (1999))”, “performed.” for “performed. The resulting dose response curves are fit to a 4 parameter logistic equation and the final result is determined as the inflection point (IP) of the curve”

EC50 [nM]	SMILES
11	Cc1ccc(-c2cnn(CC3(C)CCCC3)c2)c(-c2ccc3c(c2)C(=O)N(C)C3)n1 [Example 27, 2-methyl-6-(6-methyl-3-(1-((1-methylcyclopentyl)methyl)-1H-pyrazol-4-yl)pyridin-2-yl)isoindolin-1-one]
10	Cc1ccc(-c2cnn(CC3(C)CCCC3)c2)c(-c2ccc3c(c2)C(=O)N(C2CC2)C3)n1 [Example 28, 2-cyclopropyl-6-(6-methyl-3-(1-((1-methylcyclopentyl)methyl)-1H-pyrazol-4-yl)pyridin-2-yl)isoindolin-1-one]
13	CC1(Cn2cc(-c3c(F)ccnc3-c3ccc4c(c3)C(=O)N(CC3CC3)C4)cn2)CCCC1 [Example 29, 2-(cyclopropylmethyl)-6-(4-fluoro-3-(1-((1-methylcyclopentyl)methyl)-1H-pyrazol-4-yl)pyridin-2-yl)isoindolin-1-one]
18	Cc1ccc(-c2cnn(CC3(C)CCCC3)c2F)c(-c2ccc3c(c2)C(=O)N(CC2CC2)C3)n1 [Example 30, 2-(cyclopropylmethyl)-6-(3-(5-fluoro-1-((1-methylcyclopentyl)methyl)-1H-pyrazol-4-yl)-6-methylpyridin-2-yl)isoindolin-1-one]
74	CN1Cc2ccc(-c3nccc(C#N)c3-c3cnn(CC4(C)CCCC4)c3)cc2C1=O [Example 31, 2-(2-methyl-3-oxoisoindolin-5-yl)-3-(1-((1-methylcyclopentyl)methyl)-1H-pyrazol-4-yl)isonicotinonitrile]
7	CC1(Cn2cc(-c3ccc(C#N)nc3-c3ccc4c(c3)C(=O)N(CC3CC3)C4)cn2)CCCC1 [Example 32, 6-(2-(cyclopropylmethyl)-3-oxoisoindolin-5-yl)-5-(1-((1-methylcyclopentyl)methyl)-1H-pyrazol-4-yl)picolinonitrile]
7	CC1(Cn2cc(-c3ccc(C#N)nc3-c3ccc4c(c3)C(=O)N(C3CC3)C4)cn2)CCCC1 [Example 33, 6-(2-cyclopropyl-3-oxoisoindolin-5-yl)-5-(1-((1-methylcyclopentyl)methyl)-1H-pyrazol-4-yl)picolinonitrile]
15	CC1(Cn2cc(-c3ccc(C#N)nc3-c3ccc4c(c3)C(=O)NC4)cn2)CCCC1 [Example 34, 5-(1-((1-methylcyclopentyl)methyl)-1H-pyrazol-4-yl)-6-(3-oxoisoindolin-5-yl)picolinonitrile]
44	COC(=O)CN1Cc2ccc(-c3nc(C#N)ccc3-c3cnn(CC4(C)CCCC4)c3)cc2C1=O [Example 34A, methyl 2-(6-(6-cyano-3-(1-((1-methylcyclopentyl)-methyl)-1H-pyrazol-4-yl)pyridin-2-yl)-1-oxoisoindolin-2-yl)acetate]
9	CC1(Cn2cc(-c3ccc(F)nc3-c3ccc4c(c3)C(=O)N(C3CC3)C4)cn2)CCCC1 [Example 35, 2-cyclopropyl-6-(6-fluoro-3-(1-((1-methylcyclopentyl)methyl)-1H-pyrazol-4-yl)pyridin-2-yl)isoindolin-1-one]
6	CN1Cc2ccc(-c3nc(F)ccc3-c3cnn(CC4(C)CCCC4)c3)cc2C1=O [Example 36, 6-(6-fluoro-3-(1-((1-methylcyclopentyl)methyl)-1H-pyrazol-4-yl)pyridin-2-yl)-2-methylisoindolin-1-one]
7	CC1(Cn2cc(-c3ccc(F)nc3-c3ccc4c(c3)C(=O)NC4)cn2)CCCC1 [Example 37, 6-(6-fluoro-3-(1-((1-methylcyclopentyl)methyl)-1H-pyrazol-4-yl)pyridin-2-yl)isoindolin-1-one]
33	Cc1cc(-c2cnn(CC3(C)CCCC3)c2)c(-c2ccc3c(c2)C(=O)N(C)C3)nc1Cl [Example 38, 6-(6-chloro-5-methyl-3-(1-((1-methylcyclopentyl)methyl)-1H-pyrazol-4-yl)pyridin-2-yl)-2-methylisoindolin-1-one]
37	CN1Cc2ccc(-c3nc4c(cc3-c3cnn(CC5(C)CCCC5)c3)CCC4)cc2C1=O [Example 39, 2-methyl-6-(3-(1-((1-methylcyclopentyl)methyl)-1H-pyrazol-4-yl)-6,7-dihydro-5H-cyclopenta[b]pyridin-2-yl)isoindolin-1-one]
